Experimental data reported in ChEMBL document CHEMBL1201862, “PubChem BioAssay data set” (2004).
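These data come from cells grown in 96-well plates and exposed to compound for 48 hours at five concentrations. The concentration for 50% growth inhibition is given as GI50.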 Activity calls are given as the source filed them. No stated cut-off is given here; in the data, active = GI50 up to about 1.1 µM and inactive = higher.

What was measured:
Assay in all cases: NCI tumour cell line growth inhibition, 48 h
HOP-92 = system: HOP-92
DMS-114 = system: DMS-114
SNB-75 = system: SNB-75
NCI-H226 = system: NCI-H226
LXFL 529 = system: LXFL 529
HL-60 = system: HL-60
786-0 = system: 786-0
DMS-273 = system: DMS-273
CCRF-CEM = system: CCRF-CEM
A498 = system: A498
K562 = system: K562
HOP-62 = system: HOP-62
DLD-1 = system: DLD-1
OVCAR-3 = system: OVCAR-3
KM12 = system: KM12
UO-31 = system: UO-31
KM-20L2 = system: KM-20L2
M14 = system: M14
OVCAR-8 = system: OVCAR-8
SK-MEL-5 = system: SK-MEL-5
UACC-257 = system: UACC-257
SF-295 = system: SF-295
SF-268 = system: SF-268
COLO 205 = system: COLO 205
OVCAR-5 = system: OVCAR-5
CAKI-1 = system: CAKI-1
M19-MEL = system: M19-MEL
SNB-19 = system: SNB-19
TK-10 = system: TK-10
SF-539 = system: SF-539
SN12C = system: SN12C
IGROV-1 = system: IGROV-1
NCI-H460 = system: NCI-H460
UACC-62 = system: UACC-62
ACHN = system: ACHN
SK-OV-3 = system: SK-OV-3
SNB-78 = system: SNB-78
HOP-18 = system: HOP-18
A549 = system: A549
NCI-H23 = system: NCI-H23
SK-MEL-28 = system: SK-MEL-28
HCT-116 = system: HCT-116
EKVX = system: EKVX
OVCAR-4 = system: OVCAR-4
Malme-3M = system: Malme-3M
HCT-15 = system: HCT-15
U-251 = system: U-251
RPMI-8226 = system: RPMI-8226
HCC 2998 = system: HCC 2998
SW-620 = system: SW-620
HT-29 = system: HT-29
MOLT-4 = system: MOLT-4
DU-145 = system: DU-145
MDA-MB-231 = system: MDA-MB-231
T47D = system: T47D
BT-549 = system: BT-549
SR = system: SR
MDA-N = system: MDA-N
MDA-MB-435 = system: MDA-MB-435
PC-3 = system: PC-3
LOX IMVI = system: LOX IMVI
MCF7 = system: MCF7
SK-MEL-2 = system: SK-MEL-2
RXF 393 = system: RXF 393
NCI-H522 = system: NCI-H522
NCI/ADR-RES = system: NCI/ADR-RES
Hs-578T = system: Hs-578T

Measured: GI50

CCc1ccccc1NC(=O)CCc1n[nH]c(=S)o1
inactive: HOP-92 > 100 µM | DMS-114 > 100 µM | SNB-75 > 100 µM | NCI-H226 > 100 µM | LXFL 529 > 100 µM | HL-60 > 100 µM | 786-0 > 100 µM | DMS-273 > 100 µM | CCRF-CEM > 100 µM | A498 > 100 µM | K562 > 100 µM | HOP-62 > 100 µM | DLD-1 92.5 µM | OVCAR-3 > 100 µM | KM12 > 100 µM | UO-31 > 100 µM | KM-20L2 > 100 µM | M14 > 100 µM | OVCAR-8 > 100 µM | SK-MEL-5 > 100 µM | UACC-257 > 100 µM | SF-295 > 100 µM | SF-268 > 100 µM | COLO 205 > 100 µM | OVCAR-5 > 100 µM | CAKI-1 > 100 µM | M19-MEL > 100 µM | SNB-19 > 100 µM | TK-10 > 100 µM | SF-539 76.2 µM | SN12C > 100 µM | IGROV-1 > 100 µM | NCI-H460 > 100 µM | UACC-62 > 100 µM | ACHN > 100 µM | SK-OV-3 > 100 µM | SNB-78 > 100 µM | HOP-18 > 100 µM | A549 > 100 µM | NCI-H23 > 100 µM | SK-MEL-28 > 100 µM | HCT-116 18.5 µM | EKVX > 100 µM | OVCAR-4 > 100 µM | Malme-3M > 100 µM | U-251 > 100 µM | RPMI-8226 98.9 µM | HCC 2998 > 100 µM | SW-620 18.6 µM | HT-29 > 100 µM | MOLT-4 > 100 µM
19.3 µM: HCT-15

CCOC(=O)c1c(Nc2ccccc2)sc2cccnc12
active: COLO 205 0.853 µM
inactive: HOP-92 1.9 µM | DU-145 28.7 µM | SNB-75 19.9 µM | NCI-H226 5.68 µM | HL-60 15.1 µM | 786-0 11.6 µM | CCRF-CEM 10.5 µM | A498 3.56 µM | K562 8.36 µM | HOP-62 35.5 µM | OVCAR-3 17.4 µM | MDA-MB-231 6.56 µM | KM12 18.9 µM | UO-31 1.94 µM | M14 4.49 µM | OVCAR-8 25.1 µM | SK-MEL-5 3.56 µM | T47D 28 µM | UACC-257 5.35 µM | SF-295 21.4 µM | SF-268 29.9 µM | BT-549 18.7 µM | OVCAR-5 12.4 µM | CAKI-1 37.2 µM | SNB-19 7.66 µM | TK-10 11.2 µM | SR 9.44 µM | MDA-N 6.73 µM | SF-539 1.43 µM | MDA-MB-435 22.6 µM | PC-3 11.1 µM | SN12C 9.18 µM | LOX IMVI 18.2 µM | IGROV-1 23 µM | NCI-H460 2.25 µM | MCF7 7.76 µM | UACC-62 11.9 µM | ACHN 14.2 µM | SK-OV-3 36 µM | A549 3.24 µM | NCI-H23 30.3 µM | SK-MEL-28 20.8 µM | HCT-116 5.92 µM | EKVX 18.5 µM | OVCAR-4 23.3 µM | Malme-3M 30.3 µM | SK-MEL-2 17.7 µM | U-251 2.43 µM | RXF 393 25.7 µM | RPMI-8226 2.05 µM | NCI-H522 21 µM | NCI/ADR-RES 21.9 µM | HCC 2998 3.24 µM | SW-620 24 µM | HT-29 5.48 µM | MOLT-4 15.6 µM | Hs-578T 35.3 µM
21.7 µM: HCT-15

C=C(C)C1CC=C(C)[C@](O)(C2(O)C[C@H](C(=C)C)CC=C2C)C1 (stereo partly specified)
inactive: HOP-92 > 100 µM | DMS-114 > 100 µM | HL-60 > 100 µM | DMS-273 > 100 µM | CCRF-CEM > 100 µM | A498 > 100 µM | HOP-62 > 100 µM | KM12 > 100 µM | UO-31 > 100 µM | KM-20L2 > 100 µM | M14 > 100 µM | OVCAR-8 > 100 µM | UACC-257 > 100 µM | SF-295 > 100 µM | OVCAR-5 > 100 µM | M19-MEL > 100 µM | SNB-19 > 100 µM | TK-10 > 100 µM | SR > 100 µM | IGROV-1 > 100 µM | NCI-H460 > 100 µM | UACC-62 > 100 µM | ACHN > 100 µM | SK-OV-3 > 100 µM | SNB-78 > 100 µM | A549 > 100 µM | NCI-H23 > 100 µM | SK-MEL-28 > 100 µM | HCT-116 > 100 µM | EKVX > 100 µM | U-251 > 100 µM | RXF 393 > 100 µM | NCI-H522 > 100 µM | HT-29 > 100 µM | MOLT-4 > 100 µM
